From patent US20100048714A1, “Methods and Compositions Related to Inhibition of Ceramide Synthesis” (University of Utah Research Foundation, priority 2006, published 2010)

Experiments:
[1] = system: soleus muscles; assay: Isolated soleus muscle strips incubated with free fatty acids; details: cycloserine 1 mM or myriocin 10 μM
[2] = system: Sprague-Dawley rats; assay: Lipid infusion with hyperinsulinemic euglycemic clamps; assay type: in vivo, rat; details: for Glucose, During Clamp / FFA, Before Clamp / FFA, Before Infusion / FFA, During Clamp / Glucose, Before Clamp / Glucose, Before Infusion / Insulin, Before Clamp / Insulin, Before Infusion / Insulin, During Clamp: plasma, mean ± standard error, n=4; for Glucose, During Clamp: 30 minute steady state
From the text: The more common mechanism by which insulin resistance likely develops in the obese is through the accumulation of fats in tissues not-suited for lipid storage. Indeed, intramyocellular lipid levels inversely correlate with insulin sensitivity, and are one of the best predictors of insulin resistance in humans. To mimic this condition in rats, a 20% lard oil-heparin infusate was delivered into the bloodstream of Sprague-Dawley rats via jugular catheters. […] To assess muscle insulin sensitivity during the infusion, hyperinsulinemic-euglycemic clamps were performed on conscious, unrestrained rats during the terminal 90 minutes of the protocol. Lard oil infusion decreased insulin-stimulated glucose disposal to 47% of glycerol treated control subjects (FIG. 3C). […] Differences in the glucose infusion rats could not be accounted for by the slight differences in the glucose concentration that was achieved during the clamp nor to differences in steady-state insulin concentrations (Table 3).
Male Sprague-Dawley rats (˜250 grams) were randomly divided into nine different groups. Glycerol, 20% lard oil, or 20% soy oil emulsions were prepared as previously described (Stein 1997) and infused at a constant rate of 5 mL/Kg/hour. To activate lipoprotein lipase, heparin (6 units/hour) was added to the triglyceride emulsions. Lipids were infused in animals treated with control injections (normal saline), myriocin (100 μg/Kg IP) or cycloserine (50 mg/Kg IP). Drugs were given 12 hours prior to lipid infusion and equivalent doses were given intravenously at the time of infusion. […] Following lipid infusion animals were deeply anesthetized with sodium pentobarbital and soleus muscles were rapidly dissected out and rapidly frozen in liquid nitrogen.
Clamps were performed in conscious unrestrained animals using swivels and tethers (Instech, Plymouth Meeting, Pa.) to allow uninterrupted movement of the animal without disruption of infusion lines. Hyperinsulinemia was initiated by intravenous infusion of insulin (10 mU/kg/min at a flow rate of 4 μL/min).

[3] = Intralipid infusion, with or without myriocin or cycloserine
[4] = lard oil infusion, with or without myriocin or cycloserine

CCCCCCC(=O)CCCCCC/C=C/C[C@@H](O)[C@H](O)[C@@](N)(CO)C(=O)O [Myriocin]
linoleate effects on 2-DOG uptake ([1]; 1 mM linoleate): did not alter linoleate effects | linoleate effects on DAG accumulation ([1]; 1 mM linoleate): did not alter linoleate effects | DAG in palmitate-treated muscles ([1]; 1 mM palmitate): without affecting DAG | palmitate effect on insulin-stimulated 2-deoxyglucose uptake ([1]; 1 mM palmitate): completely negated the antagonistic effects of palmitate | palmitate-induced ceramide accumulation ([1]; 1 mM palmitate): prevented palmitate-induced ceramide accumulation | insulin-stimulated glucose disposal / insulin resistance [2, 3]: Neither myriocin nor cycloserine prevented | muscle DAG levels [2, 3]: Neither myriocin nor cycloserine prevented | ceramide in skeletal muscle [2, 4]: blocked ceramide synthesis | diacylglycerol (DAG) in muscle [2, 4]: Neither myriocin nor cycloserine reduced DAG | glucose utilization in clamp ([2]; lard-infused animals): restored glucose utilization | Glucose, During Clamp ([2]; Lipid: Glycerol): 111.2 ± 6.6 mg/dL | Glucose, During Clamp ([2]; Lipid: Lard oil (PBS or drug)): 108.4 ± 1.0 mg/dL | Glucose, During Clamp ([2]; Lipid: Soy oil (PBS or drug)): 108.3 ± 0.4 mg/dL | FFA, Before Clamp ([2]; Lipid: Glycerol): 0.455 ± 0.13 mM | FFA, Before Infusion ([2]; Lipid: Glycerol): 1.22 ± 0.25 mM | FFA, During Clamp ([2]; Lipid: Glycerol): 0.872 ± 0.75 mM | Glucose, Before Clamp ([2]; Lipid: Glycerol): 117.7 ± 9.1 mg/dL | Glucose, Before Infusion ([2]; Lipid: Glycerol): 103.0 ± 10.6 mg/dL | Insulin, Before Clamp ([2]; Lipid: Glycerol): 1.90 ± 0.71 ng/mL | Insulin, Before Infusion ([2]; Lipid: Glycerol): 0.436 ± 0.03 ng/mL | Insulin, During Clamp ([2]; Lipid: Glycerol): 8.02 ± 2.52 ng/mL | FFA, Before Clamp ([2]; Lipid: Lard oil (PBS or drug)): 1.52 ± 0.49 mM | FFA, Before Infusion ([2]; Lipid: Lard oil (PBS or drug)): 0.912 ± 0.30 mM | FFA, During Clamp ([2]; Lipid: Lard oil (PBS or drug)): 2.427 ± 0.30 mM | Glucose, Before Clamp ([2]; Lipid: Lard oil (PBS or drug)): 123.3 ± 3.8 mg/dL | Glucose, Before Infusion ([2]; Lipid: Lard oil (PBS or drug)): 101.0 ± 11.4 mg/dL | Insulin, Before Clamp ([2]; Lipid: Lard oil (PBS or drug)): 1.90 ± 0.50 ng/mL | Insulin, Before Infusion ([2]; Lipid: Lard oil (PBS or drug)): 0.407 ± 0.47 ng/mL | Insulin, During Clamp ([2]; Lipid: Lard oil (PBS or drug)): 17.02 ± 3.79 ng/mL | FFA, Before Clamp ([2]; Lipid: Soy oil (PBS or drug)): 1.58 ± 0.57 mM | FFA, Before Infusion ([2]; Lipid: Soy oil (PBS or drug)): 1.01 ± 0.10 mM | FFA, During Clamp ([2]; Lipid: Soy oil (PBS or drug)): 1.80 ± 0.44 mM | Glucose, Before Clamp ([2]; Lipid: Soy oil (PBS or drug)): 105.0 ± 4.6 mg/dL | Glucose, Before Infusion ([2]; Lipid: Soy oil (PBS or drug)): 109.3 ± 10.4 mg/dL | Insulin, Before Clamp ([2]; Lipid: Soy oil (PBS or drug)): 2.46 ± 1.1 ng/mL | Insulin, Before Infusion ([2]; Lipid: Soy oil (PBS or drug)): 0.305 ± 0.08 ng/mL | Insulin, During Clamp ([2]; Lipid: Soy oil (PBS or drug)): 11.55 ± 2.91 ng/mL
